# Values of other authors in patent publication US4981695A, “Composition comprising L-dopa” (priority 1986, dated 1991).
# Experiments:
# [1] = background
# Parkinsons disease = details: particularly tremor; background
Compound,L-dopa dose on adding a decarboxylase inhibitor [1],inhibition of symptoms of the Parkinsons disease (Parkinsons disease),decomposition by carboxylic elimination [1],resorption (absorption window) ([1]; gastro-intestinal tract)
C[C@@](Cc1ccc(O)c(O)c1)(NN)C(=O)O [carbidopa],considerably reduced,–,–,–
"N[C@@H](Cc1ccc(O)c(O)c1)C(=O)O [L-dopa, L-3,4-dihydroxyphenylalanine]",–,active at the inhibition of symptoms of the Parkinsons disease,rapidly decomposed by carboxylic elimination,resorbed over a restricted part of the gastro-intestinal tract
NC(CO)C(=O)NNCc1ccc(O)c(O)c1O (centres unmarked) [benserazide],considerably reduced,–,–,–
